{
  "source": "patent US6620822B1",
  "about": "“Fungicidal combinations of active substance” (priority 1999, dated 2003)",
  "format_in_all_cases": "in vivo",
  "key": {"[1]": {"tested_on": "Sphaerotheca fuliginea", "assay": "Sphaerotheca test (cucumber)/protective", "settings": "protective, single active compound, evaluation 10 days after inoculation"}, "[2]": {"tested_on": "Phytophthora infestans", "settings": "tomato, protective, single active compound, application rate 5 g/ha, evaluation 3 days after inoculation"}, "[3]": {"tested_on": "Erysiphe graminis f.sp. hordei", "assay": "Erysiphe test (barley)/curative", "settings": "curative, single active compound, evaluation 7 days after inoculation"}},
  "data": [
    {"smiles": "Cc1ccc(N(SC(F)(Cl)Cl)S(=O)(=O)N(C)C)cc1", "note": "[(III), N-dichloro-fluoro-methylthio-N′,N′-dimethyl-N-p-tolylsulfamide]", "values": [
      {"measurement": "Efficacy in %", "setting": "[1]; application rate 50 g/ha", "result": 0, "unit": "%"}
    ]},
    {"smiles": "CC(C)(C)C(O)C(Oc1ccc(-c2ccccc2)cc1)n1cncn1", "note": "(stereo not drawn) [(IIb), 1-(4-phenyl-phenoxy)-3,3-dimethyl-1-(1,2,4-triazol-1-yl)-butan-2-ol]", "values": [
      {"measurement": "Efficacy in %", "setting": "[1]; application rate 10 g/ha", "result": 27, "unit": "%"}
    ]},
    {"smiles": "CC1(C(=O)Nc2ccc(O)c(Cl)c2Cl)CCCCC1", "note": "[(V)]", "values": [
      {"measurement": "Efficacy in %", "setting": "[1]; application rate 10 g/ha", "result": 0, "unit": "%"}
    ]},
    {"smiles": "Fc1ccc(Oc2ccnc3cc(Cl)cc(Cl)c23)cc1", "note": "[(I), 5,7-dichloro-4-(4-fluoro-phenoxy)-quinoline]", "values": [
      {"measurement": "Efficacy in %", "setting": "[2]", "result": 4, "unit": "%"},
      {"measurement": "Efficacy in %", "setting": "[3]; application rate 6.25 g/ha", "result": 43, "unit": "%"},
      {"measurement": "Efficacy in %", "setting": "[3]; application rate 25 g/ha", "result": 57, "unit": "%"},
      {"measurement": "Efficacy in %", "setting": "[1]; application rate 5 g/ha", "result": 57, "unit": "%"},
      {"measurement": "Efficacy in %", "setting": "[1]; application rate 10 g/ha", "result": 63, "unit": "%"}
    ]},
    {"smiles": "CC1CNC(=S)[S][Zn][S]C(=S)N1", "note": "(stereo not drawn) [(IV), zinc propylene-1,2-bis-(dithiocarbamidate)]", "values": [
      {"measurement": "Efficacy in %", "setting": "[1]; application rate 50 g/ha", "result": 0, "unit": "%"}
    ]},
    {"smiles": "CC(C)(C)C(O)C(Oc1ccc(Cl)cc1)n1cncn1", "note": "(stereo not drawn) [(IIa), 1-(4-chloro-phenoxy)-3,3-dimethyl-1-(1,2,4-triazol-1-yl)-butan-2-ol]", "values": [
      {"measurement": "Efficacy in %", "setting": "[3]; application rate 25 g/ha", "result": 93, "unit": "%"},
      {"measurement": "Efficacy in %", "setting": "[1]; application rate 5 g/ha", "result": 63, "unit": "%"}
    ]},
    {"smiles": "Cc1ccc(C(C)NC(=O)C(NC(=O)OC(C)C)C(C)C)cc1", "note": "(stereo not drawn) [(VI)]", "values": [
      {"measurement": "Efficacy in %", "setting": "[1]; application rate 10 g/ha", "result": 0, "unit": "%"}
    ]}
  ]
}
